Key:
[1] = system: duplex-[(dAdT)12·(dAdT)12] (DNA, duplex) ATATATATATATATATATATATAT; assay: ITC; conditions: 100 mM KCl; 25 mM MOPS, 1 mM EDTA, pH 7.1, 25 °C; too weak to be analysed
[2] = system: duplex-[(dGdC)12·(dGdC)12] (DNA, duplex) GCGCGCGCGCGCGCGCGCGCGCGC; assay: ITC; conditions: 100 mM KCl; 25 mM MOPS, 1 mM EDTA, pH 7.1, 25 °C; site 1 of 2; ill-defined, SI favours higher value
[3] = system: 22AG (DNA, G4) AGGGTTAGGGTTAGGGTTAGGG; assay: ITC; conditions: 100 mM KCl; 25 mM MOPS, 1 mM EDTA, pH 7.1, 25 °C; site 1 of 2
[4] = system: c-myc (DNA, G4) TGAGGGTGGGTAGGGTGGGTAA; assay: ITC; conditions: 100 mM KCl; 25 mM MOPS, 1 mM EDTA, pH 7.1, 25 °C; site 1 of 2; nB restricted to 2
[5] = system: duplex-[(dAdT)12·(dAdT)12] (DNA, duplex) ATATATATATATATATATATATAT; assay: UV/visible titration; conditions: 100 mM KCl; 25 mM MOPS, 1 mM EDTA, pH 7.1, 20 °C (text: 25 °C); 2 µM ligand; affinity printed as negligible
[6] = system: duplex-[(dGdC)12·(dGdC)12] (DNA, duplex) GCGCGCGCGCGCGCGCGCGCGCGC; assay: UV/visible titration; conditions: 100 mM KCl, 25 mM MOPS, 1 mM EDTA, pH 7.1, 20 °C (text: 25 °C), apparent, per site, MIS model
[7] = system: 22AG (DNA, G4) AGGGTTAGGGTTAGGGTTAGGG; assay: UV/visible titration; conditions: 100 mM KCl, 25 mM MOPS, 1 mM EDTA, pH 7.1, 20 °C (text: 25 °C), apparent, per site, MIS model
[8] = system: c-myc (DNA, G4) TGAGGGTGGGTAGGGTGGGTAA; assay: UV/visible titration; conditions: 100 mM KCl, 25 mM MOPS, 1 mM EDTA, pH 7.1, 20 °C (text: 25 °C), apparent, per site, MIS model
[9] = system: duplex-[(dAdT)12·(dAdT)12] (DNA, duplex) ATATATATATATATATATATATAT; assay: fluorescence titration; conditions: 100 mM KCl; 25 mM MOPS, 1 mM EDTA, pH 7.1, 20 °C (text: 25 °C); 2 µM ligand; affinity printed as negligible
[10] = system: duplex-[(dGdC)12·(dGdC)12] (DNA, duplex) GCGCGCGCGCGCGCGCGCGCGCGC; assay: fluorescence titration; conditions: 100 mM KCl, 25 mM MOPS, 1 mM EDTA, pH 7.1, 20 °C (text: 25 °C), apparent, per site, MIS model
[11] = system: 22AG (DNA, G4) AGGGTTAGGGTTAGGGTTAGGG; assay: fluorescence titration; conditions: 100 mM KCl, 25 mM MOPS, 1 mM EDTA, pH 7.1, 20 °C (text: 25 °C), apparent, per site, MIS model
[12] = system: c-myc (DNA, G4) TGAGGGTGGGTAGGGTGGGTAA; assay: fluorescence titration; conditions: 100 mM KCl, 25 mM MOPS, 1 mM EDTA, pH 7.1, 20 °C (text: 25 °C), apparent, per site, MIS model

C[n+]1cccc(-c2cc3c4cc(-c5ccc[n+](C)c5)c5nc(C(F)(F)C(F)(F)C(F)(F)F)nc6c(-c7ccc[n+](C)c7)cc(c7cc(-c8ccc[n+](C)c8)c8nc(C(F)(F)C(F)(F)C(F)(F)F)nc2c8c37)c4c56)c1
binding [1]: weak
K A [2]: 1.2×10^5 (<8×10^6) M^-1
K A [3]: 3.8×10^6 (<36×10^6) M^-1
K A [4]: 1.3×10^7 (>0.4×10^7) M^-1
binding [5]: weak
K b [6]: (2.6±0.9) × 10^6 M^-1
K b [7]: (8.4±2.2) × 10^6 M^-1
K b [8]: (23.8±7.3) × 10^6 M^-1
binding [9]: weak
K b [10]: (2.6±0.7) × 10^6 M^-1
K b [11]: (1.2±0.2) × 10^6 M^-1
K b [12]: (23.1±5.9) × 10^6 M^-1

— PMC5071672 (2016)
